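Five concentrations, 48 hours, 96-well plates. GI50 = concentration required for 50% inhibition of growth.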 Calls of active or inactive are those of the source. Rule as the data show it: active = GI50 up to about 1.1 µM and inactive = higher.
What was measured:
Assay in all cases: NCI tumour cell line growth inhibition, 48 h
Hs-578T = tested on: Hs-578T
SK-OV-3 = tested on: SK-OV-3
OVCAR-5 = tested on: OVCAR-5
OVCAR-3 = tested on: OVCAR-3
HCT-116 = tested on: HCT-116
LOX IMVI = tested on: LOX IMVI
ACHN = tested on: ACHN
MDA-N = tested on: MDA-N
SK-MEL-28 = tested on: SK-MEL-28
SF-539 = tested on: SF-539
RXF 393 = tested on: RXF 393
SK-MEL-5 = tested on: SK-MEL-5
HOP-62 = tested on: HOP-62
HCT-15 = tested on: HCT-15
HT-29 = tested on: HT-29
SK-MEL-2 = tested on: SK-MEL-2
OVCAR-4 = tested on: OVCAR-4
NCI-H226 = tested on: NCI-H226
M14 = tested on: M14
SNB-19 = tested on: SNB-19

SMILES | GI50 (Hs-578T) | GI50 (SK-OV-3) | GI50 (OVCAR-5) | GI50 (OVCAR-3) | GI50 (HCT-116) | GI50 (LOX IMVI) | GI50 (ACHN) | GI50 (MDA-N) | GI50 (SK-MEL-28) | GI50 (SF-539) | GI50 (RXF 393) | GI50 (SK-MEL-5) | GI50 (HOP-62) | GI50 (HCT-15) [µM] | GI50 (HT-29) | GI50 (SK-MEL-2) | GI50 (OVCAR-4) | GI50 (NCI-H226) | GI50 (M14) | GI50 (SNB-19)
O=C1/C(=C/c2ccccc2O)N=C(c2ccccc2)N1c1nc2ccccc2s1 | 16 µM (inactive) | 23.4 µM (inactive) | 51.4 µM (inactive) | 7.43 µM (inactive) | 14.3 µM (inactive) | 15.5 µM (inactive) | 23.7 µM (inactive) | 2.51 µM (inactive) | 21.3 µM (inactive) | 20.7 µM (inactive) | 34.3 µM (inactive) | 7.57 µM (inactive) | 18.6 µM (inactive) | 6.11 | 20.9 µM (inactive) | 9.18 µM (inactive) | 32.1 µM (inactive) | 22.7 µM (inactive) | 17.1 µM (inactive) | –
O=C(CCc1ccc(O)c(O)c1)NCCc1ccccc1 | > 82.6 µM (inactive) | 65.8 µM (inactive) | > 100 µM (inactive) | 30.1 µM (inactive) | 26.4 µM (inactive) | 63.2 µM (inactive) | 22 µM (inactive) | 19 µM (inactive) | 85.5 µM (inactive) | > 47.8 µM (inactive) | > 100 µM (inactive) | 22.4 µM (inactive) | > 100 µM (inactive) | 15.5 | > 45.3 µM (inactive) | 32.7 µM (inactive) | 14.6 µM (inactive) | 99.8 µM (inactive) | > 85.7 µM (inactive) | > 74.5 µM (inactive)
NC(CCc1ccccc1)(C(=O)O)c1ccccc1 (stereo unspecified) | > 100 µM (inactive) | – | > 100 µM (inactive) | > 100 µM (inactive) | > 100 µM (inactive) | > 100 µM (inactive) | > 100 µM (inactive) | > 100 µM (inactive) | > 100 µM (inactive) | – | > 100 µM (inactive) | > 100 µM (inactive) | > 100 µM (inactive) | > 100 | > 100 µM (inactive) | > 100 µM (inactive) | > 100 µM (inactive) | > 100 µM (inactive) | > 100 µM (inactive) | > 100 µM (inactive)
CC(CN1NC12CCCC2)N1NC12CCCC2 (stereo unspecified) | > 100 µM (inactive) | > 100 µM (inactive) | > 100 µM (inactive) | > 100 µM (inactive) | > 100 µM (inactive) | > 100 µM (inactive) | > 100 µM (inactive) | > 100 µM (inactive) | > 100 µM (inactive) | > 100 µM (inactive) | > 100 µM (inactive) | > 100 µM (inactive) | > 100 µM (inactive) | > 100 | > 100 µM (inactive) | > 100 µM (inactive) | > 100 µM (inactive) | > 100 µM (inactive) | > 100 µM (inactive) | > 100 µM (inactive)
Cc1cc(C)nc(SCCc2cccc[n+]2C)n1 | > 100 µM (inactive) | > 100 µM (inactive) | 36.1 µM (inactive) | > 100 µM (inactive) | > 100 µM (inactive) | > 100 µM (inactive) | > 100 µM (inactive) | > 100 µM (inactive) | > 100 µM (inactive) | – | > 100 µM (inactive) | > 100 µM (inactive) | > 100 µM (inactive) | > 100 | > 100 µM (inactive) | – | > 100 µM (inactive) | > 100 µM (inactive) | > 100 µM (inactive) | > 100 µM (inactive)
CC(=O)N(C(C)=O)c1ncc(-n2nc(-c3ccccc3)cc2-c2ccccc2)c(-c2ccccc2)n1 | > 10 µM (inactive) | > 10 µM (inactive) | > 10 µM (inactive) | > 10 µM (inactive) | 4.82 µM (inactive) | 6.73 µM (inactive) | > 10 µM (inactive) | 3.15 µM (inactive) | > 10 µM (inactive) | > 10 µM (inactive) | > 10 µM (inactive) | 4.12 µM (inactive) | > 10 µM (inactive) | 8.91 | 4.65 µM (inactive) | > 10 µM (inactive) | > 10 µM (inactive) | > 10 µM (inactive) | > 10 µM (inactive) | > 10 µM (inactive)
C=C1C(=O)OC2CC(C)C(C(O)CC(C)O)=CCC12 (stereo unspecified) | 20.9 µM (inactive) | 36.7 µM (inactive) | 15 µM (inactive) | 9.62 µM (inactive) | 8.71 µM (inactive) | 10.6 µM (inactive) | 4.39 µM (inactive) | 12.4 µM (inactive) | 9.62 µM (inactive) | 15 µM (inactive) | 12.5 µM (inactive) | 19.4 µM (inactive) | 26.2 µM (inactive) | 14.2 | 13.6 µM (inactive) | 16.3 µM (inactive) | 19.7 µM (inactive) | 26.1 µM (inactive) | 15.2 µM (inactive) | 28.4 µM (inactive)
CCCCCC(=O)OC[n+]1cccc(-c2c(COC(=O)NC(C)C)c(COC(=O)NC(C)C)c3n2CCC3)c1 | 69.3 µM (inactive) | > 57.3 µM (inactive) | > 63.5 µM (inactive) | 54.1 µM (inactive) | 45.3 µM (inactive) | 24 µM (inactive) | 23.1 µM (inactive) | > 100 µM (inactive) | > 100 µM (inactive) | 27.9 µM (inactive) | 26.4 µM (inactive) | 40.6 µM (inactive) | 44.1 µM (inactive) | 56.1 | 46.9 µM (inactive) | 26.7 µM (inactive) | 42.4 µM (inactive) | > 64.4 µM (inactive) | 52.1 µM (inactive) | 74.3 µM (inactive)
O=C(/C=C(\O)c1cc(-c2ccccc2)n(-c2ccccc2)n1)c1ccccc1 | 14.7 µM (inactive) | 3.04 µM (inactive) | 19.3 µM (inactive) | 4.84 µM (inactive) | 5.64 µM (inactive) | 4.37 µM (inactive) | 3.35 µM (inactive) | 18.2 µM (inactive) | 0.631 µM (active) | 10.9 µM (inactive) | 67.6 µM (inactive) | 8.85 µM (inactive) | 3.46 µM (inactive) | 1.48 | 3.58 µM (inactive) | 13.4 µM (inactive) | – | 3.38 µM (inactive) | 6.24 µM (inactive) | 5.97 µM (inactive)
Cc1cc(S(=O)(=O)n2ccnc2Oc2ccccc2)c(SSc2cc(Cl)c(C)cc2S(=O)(=O)n2ccnc2Oc2ccccc2)cc1Cl | 1.95 µM (inactive) | > 100 µM (inactive) | > 100 µM (inactive) | > 100 µM (inactive) | > 100 µM (inactive) | > 100 µM (inactive) | – | > 100 µM (inactive) | > 100 µM (inactive) | > 100 µM (inactive) | > 100 µM (inactive) | 24.9 µM (inactive) | – | > 100 | > 100 µM (inactive) | > 100 µM (inactive) | 35.3 µM (inactive) | 15.9 µM (inactive) | > 100 µM (inactive) | > 100 µM (inactive)
Cc1nc(C)c(N2CCN(C#N)CC2)c(O)n1 | > 100 µM (inactive) | > 100 µM (inactive) | – | > 100 µM (inactive) | > 100 µM (inactive) | > 100 µM (inactive) | > 100 µM (inactive) | > 100 µM (inactive) | > 100 µM (inactive) | > 100 µM (inactive) | > 100 µM (inactive) | > 100 µM (inactive) | > 100 µM (inactive) | > 100 | > 100 µM (inactive) | – | > 100 µM (inactive) | > 100 µM (inactive) | > 100 µM (inactive) | > 100 µM (inactive)
CCCCc1ccc(N2C(=O)c3cc(C)cnc3S2(=O)=O)cc1 | 43.1 µM (inactive) | 63.2 µM (inactive) | > 100 µM (inactive) | > 100 µM (inactive) | > 100 µM (inactive) | > 100 µM (inactive) | > 100 µM (inactive) | > 100 µM (inactive) | > 100 µM (inactive) | – | 49.2 µM (inactive) | > 100 µM (inactive) | 85.7 µM (inactive) | > 100 | > 100 µM (inactive) | > 100 µM (inactive) | > 100 µM (inactive) | > 100 µM (inactive) | > 100 µM (inactive) | > 100 µM (inactive)
Cn1c(=O)c2c(nc3n(Cc4ccccc4)c(=O)c(Br)cn23)n(C)c1=O | > 100 µM (inactive) | – | > 100 µM (inactive) | > 100 µM (inactive) | > 100 µM (inactive) | > 100 µM (inactive) | > 100 µM (inactive) | > 100 µM (inactive) | > 100 µM (inactive) | > 100 µM (inactive) | > 100 µM (inactive) | > 100 µM (inactive) | 80.5 µM (inactive) | > 100 | > 100 µM (inactive) | > 100 µM (inactive) | > 100 µM (inactive) | > 100 µM (inactive) | > 100 µM (inactive) | > 100 µM (inactive)
CC1(C)N=c2c(ncn2N)=C(C(N)=O)N1 | > 100 µM (inactive) | > 100 µM (inactive) | > 100 µM (inactive) | > 100 µM (inactive) | > 100 µM (inactive) | > 100 µM (inactive) | > 100 µM (inactive) | > 100 µM (inactive) | > 100 µM (inactive) | > 100 µM (inactive) | > 100 µM (inactive) | > 100 µM (inactive) | > 100 µM (inactive) | > 100 | > 100 µM (inactive) | – | > 100 µM (inactive) | > 100 µM (inactive) | > 100 µM (inactive) | > 100 µM (inactive)
O=C(Nc1ccc2ccccc2c1)c1cc2cc(CCl)ccc2oc1=O | 1.55 µM (inactive) | 38.5 µM (inactive) | > 100 µM (inactive) | > 100 µM (inactive) | > 100 µM (inactive) | > 100 µM (inactive) | > 100 µM (inactive) | > 100 µM (inactive) | > 100 µM (inactive) | – | 22 µM (inactive) | > 100 µM (inactive) | 53.5 µM (inactive) | > 100 | > 100 µM (inactive) | 24 µM (inactive) | > 100 µM (inactive) | 57.5 µM (inactive) | > 100 µM (inactive) | 27.6 µM (inactive)

Reference: ChEMBL document CHEMBL1201862, “PubChem BioAssay data set” (2004)
